Results on 5 compounds are retold here after PMC7318222, “A Family of Water‐Immiscible, Dipolar Aprotic, Diamide Solvents from Succinic Acid” (Chemsuschem, 2020).

In one data set the target is T1, PPARδ (Homo sapiens, UniProt Q03181).
T1 construct: expression construct for the full-length human receptor under investigation; expressed in transfected cells; host or cells: human U2-OS cells (ATCC HTB-96), stably transfected
T1 sequence (Q03181 1-441): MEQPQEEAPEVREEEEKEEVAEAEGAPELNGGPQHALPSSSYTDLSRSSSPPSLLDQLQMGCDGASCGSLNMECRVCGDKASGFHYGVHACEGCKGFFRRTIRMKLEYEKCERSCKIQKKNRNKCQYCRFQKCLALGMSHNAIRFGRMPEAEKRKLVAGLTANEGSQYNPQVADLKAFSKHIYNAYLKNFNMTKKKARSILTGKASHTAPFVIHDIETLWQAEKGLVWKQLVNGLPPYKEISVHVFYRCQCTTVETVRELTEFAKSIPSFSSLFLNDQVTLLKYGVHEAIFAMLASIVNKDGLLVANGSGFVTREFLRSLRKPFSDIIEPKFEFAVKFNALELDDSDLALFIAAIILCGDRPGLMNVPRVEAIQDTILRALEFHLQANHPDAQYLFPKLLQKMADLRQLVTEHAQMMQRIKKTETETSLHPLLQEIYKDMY
Briefly: PPARδ CALUX reporter gene assay. In kind it is cell-based. Set-up: key: –: no effect observed up to the highest test concentration. To be noted: PC10, 24 h exposure. The text has this:
nitroaniline ≥98.0% was purchased from Alfa Aeser. Cyrene was supplied by Circa group. N-butylpyrrolidinone was supplied by Eastman chemicals. […]
Polyarylethersulfone of 55,000 Da were obtained from INGE.BASF, Germany. The CALUX cell lines have been described previously.[1] They are based on human U2-OS cells (ATCC, HTB-96) stably transfected with an expression construct for the full-length human receptor under investigation, and a reporter construct consisting of multimerized responsive elements for the cognate receptor coupled to a minimal promoter element (TATA) and a luciferase gene. Cells were maintained as described previously,[2] using cell culture media and supplements from Fisher Scientific as described in the experimental procedures section. […]
(§1) In vitro reporter gene assays
(§2) The automated CALUX assays were carried out similarly as described earlier,[12] with some adaptations. In brief, the assay was performed in CO2 independent medium (Fisher Scientific, […]
(§3) with 30 µl cell suspension/well. After 24 h, exposure medium was prepared. A dilution series in 0.5log unit increments of each test compound (in DMSO) was added to a 96-wells plate containing assay medium (2% v/v). Of this exposure mixture, 30 µl was added to the assay plates containing the CALUX cells, resulting in a final DMSO concentration of 1%. Additionally, DMSO blanks and a full dose response curve of the relevant reference compound were included on each plate. All samples were tested in triplicate. The preparation of the compound dilution series as well as the exposure of the cells were performed on a Hamilton StarLET liquid handling robot coupled to a Cytomat incubator.
Directly after exposure, plates were sealed with non-breathing plate seals (Plate sealer, easy seal […]
After 24 h the exposure medium was removed using an EL406 washer-dispenser (BioTek) and 10 µl/well triton lysisbuffer was added by the EL406.
(§4) Subsequently, the luciferase signal was measured in a luminometer (InfinitePro coupled to a Connect Stacker, both TECAN). In order to be able to detect receptor antagonism, several assays were also performed in antagonistic mode. The assay procedure was as described above, with the only exception that the EC50 concentration of the reference agonist was present during the exposure.
The luminometer data was analysed as follows; the average of the triplicate wells was determined, […]
For orientation: A reporter such as luciferase makes a cellular process visible.

A short description of a further data set: Miscibility with hexane. It counts as physicochemical. To be noted: this work.
Another data set relates to ESRE. Kind of data set: ESRE CALUX assay (unfolded protein response). Conditions: cell signaling pathway assay, 24 h exposure. More on the design: key: –: no effect observed up to the highest test concentration. In kind it is cell-based, human.
Text: Six of the CALUX assays (TCF through p53) detect activation of several cellular signaling pathways, which are indicative of general stress and acute toxicity, but also a range of more specific types of toxicity, including reproductive toxicity. […]
2-methylimidazole 99.0%, zinc(II) nitrate hexahydrate ≥99.0%, para-cymene 99.0%, 1,4-dioxane 99.8% (anhydrous), 4-nitroaniline ≥99.0%, 1-octanol ≥99.0%, diglyme ≥99.0%, DMSO-d6 (99.8% D) and chloroform-d (99.8% D) were purchased from Sigma-Aldrich. Toluene ≥99.0%, hexane ≥99.5%, DCM ≥99.5%, chloroform ≥99.5%, DMSO ≥99.0% were purchased from VWR. N,N-diethyl-4-nitroaniline ≥98.0% was purchased from Alfa Aeser. Cyrene was supplied by Circa group. N-butylpyrrolidinone was supplied by Eastman chemicals. N,N-dimethylformamide 99.9% and N,N-dimethylacetamide 99.9% were purchased from Fischer. The flakes of Ultrason® E3020 P Polyarylethersulfone of 55,000 Da were obtained from INGE.BASF, Germany. The CALUX cell lines have been described previously.[1] They are based on human U2-OS cells (ATCC, HTB-96) stably transfected with an expression construct for the full-length human receptor under investigation, and a reporter construct consisting of multimerized responsive elements for the cognate receptor coupled to a minimal promoter element (TATA) and a luciferase gene. Cells were maintained as described previously,[2] using cell culture media and supplements from Fisher Scientific as described in the experimental procedures section. […]
as §1, §2
as §3, with “supplement (Fisher Scientific, 11574466), 10 U/mL penicillin and 10 µg/mL streptomycin. A cell suspension in assay medium was made of 1 × 10^5cells/mL, and white 384-wells plates were seeded with” for “with”
Directly after exposure, plates were sealed with non-breathing plate seals (Plate sealer, easy seal transparent; Greiner-Bio-One, 676001). After 24 h the exposure medium was removed using an EL406 washer-dispenser (BioTek) and 10 µl/well triton lysisbuffer was added by the EL406.
as §4
The luminometer data was analysed as follows; the average of the triplicate wells was determined, and the average blank (DMSO) value was subtracted. […] For antagonist- and cytotoxicity experiments, PC20 values were determined instead, which was defined […]

Structures are written as SMILES. Entries after “also recorded” stand apart in the source; their conditions may differ.

As for `CCCCN(CC)C(=O)CCC(=O)N(CC)CCCC` [EBSA, N,N′‐diethyl‐N,N′‐dibutylsuccindiamide], the “LEC PPARδ” value on PPARδ was “–”. For the same compound, in “Miscibility with hexane”, the Hexane misc. entry is “yes^[a]”. In addition, in the data set on ESRE, the “LEC ESRE” value is on record as “–”.
With `CCCCN(CCCC)C(=O)CCC(=O)N(CCCC)CCCC` [TBSA, N,N,N′,N′‐tetrabutylsuccindiamide], at PPARδ, the “LEC PPARδ” value is recorded as “–”. Moreover, the Hexane misc. result in “Miscibility with hexane” is “yes^[a]”. Moreover, in the data set on ESRE, the “LEC ESRE” value is reported as “–”.
With `CCCCN(C)C(=O)CCC(=O)N(C)CCCC` [MBSA, N,N′‐dimethyl‐N,N′‐dibutylsuccindiamide], the “LEC PPARδ” value at PPARδ was “–”. In addition, the Hexane misc. entry in the data set “Miscibility with hexane” is “yes^[a]”. Further, the “LEC ESRE” value in the data set with ESRE is −2.4 Log M.
In the same order, the values of `CCCCN1CCCC1=O` [NBP, N‐Butylpyrrolidinone, reference compound] are −2.3 Log M, “miscible; also recorded: yes^[a]” and “–”.
For the compound `CN1CCCC1=O` [NMP, N‐methyl‐2‐pyrrolidone, reference compound], the Hexane misc. entry in “Miscibility with hexane” is “no^[a]”. Also, the “LEC ESRE” value with ESRE is “–”.
